Reference: the supplement of paper PMC10307832

Columns and labels:
Assay in all cases: relative viability (nuclei count vs DMSO), 5 days (fraction); higher = more cells survive
[1] = compound: CC1=CC(=CC=C1)NC2=NC(=CS2)C3=CC=NC=C3 + NC(=O)Nc1cc(-c2cccc(F)c2)sc1C(=O)N[C@H]1CCCNC1 [AZD7762] (partner 0.2 µM)
Summary of the method: (§1)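 Each reported value is a median over duplicate plates. It expresses relative viability: treated-well nuclei count divided by vehicle-well nuclei count. Lung cancer cell lines in 1536-well plates were dosed by pin tool a day after seeding, alone with one drug or with a fixed anchor-drug dose plus five library-drug doses (not always all listed) in √10 steps, and nuclei were counted after 5 days.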

[2] = compound: CC1=CC(=CC=C1)NC2=NC(=CS2)C3=CC=NC=C3 + O=C(c1cc(Cc2n[nH]c(=O)c3ccccc23)ccc1F)N1CCN(C(=O)C2CC2)CC1 [Olaparib] (partner 8 µM)
Summary of the method: as §1

Masitinib + Foretinib = compound: Cc1ccc(NC(=O)c2ccc(CN3CCN(C)CC3)cc2)cc1Nc1nc(-c2cccnc2)cs1 [Masitinib] + COc1cc2c(Oc3ccc(NC(=O)C4(C(=O)Nc5ccc(F)cc5)CC4)cc3F)ccnc2cc1OCCCN1CCOCC1 [Foretinib] (partner 0.25 µM)
Summary of the method: as §1

Masitinib + Crizotinib = compound: Cc1ccc(NC(=O)c2ccc(CN3CCN(C)CC3)cc2)cc1Nc1nc(-c2cccnc2)cs1 [Masitinib] + C[C@@H](Oc1cc(-c2cnn(C3CCNCC3)c2)cnc1N)c1c(Cl)ccc(F)c1Cl [Crizotinib] (partner 1 µM)
Summary of the method: as §1

Row | Cell Line | relative viability ([1]; first compound 0.08 µM) | relative viability ([1]; first compound 0.253 µM) | relative viability ([1]; first compound 0.8 µM) | relative viability ([1]; first compound 2.53 µM) | relative viability ([1]; first compound 8 µM) | relative viability ([2]; first compound 0.08 µM) | relative viability ([2]; first compound 0.253 µM) | relative viability ([2]; first compound 0.8 µM) | relative viability ([2]; first compound 2.53 µM) | relative viability ([2]; first compound 8 µM) | relative viability (Masitinib + Foretinib; first compound 0.01 µM) | relative viability (Masitinib + Foretinib; first compound 0.03162 µM) | relative viability (Masitinib + Foretinib; first compound 0.1 µM) | relative viability (Masitinib + Foretinib; first compound 1 µM) | relative viability (Masitinib + Crizotinib; first compound 0.01 µM) | relative viability (Masitinib + Crizotinib; first compound 0.03162 µM) | relative viability (Masitinib + Crizotinib; first compound 0.1 µM) | relative viability (Masitinib + Crizotinib; first compound 0.3162 µM) | relative viability (Masitinib + Crizotinib; first compound 1 µM) | relative viability (Masitinib + Foretinib; first compound 0.3162 µM)
1 | 201T | 0.811 | 0.79 | 0.777 | 0.865 | 0.618 | 0.853 | 0.845 | 0.788 | 0.826 | 0.757 | 0.89 | 1.21 | 1.02 | 1.11 | 0.836 | 1.03 | 0.99 | 1.02 | 0.935 | 
2 | A549 |  |  |  |  |  | 0.264 | 0.37 | 0.353 | 0.261 | 0.449 | 0.881 | 0.826 | 1 | 1.23 | 0.666 | 0.805 | 0.823 | 0.686 | 0.722 | 0.898
3 | A-427 | 0.646 | 0.795 | 0.815 | 0.81 | 0.646 | 0.456 | 0.576 | 0.565 | 0.683 | 0.615 |  | 1.13 |  | 1 |  | 0.889 |  | 0.845 | 0.783 | 1.01
4 | ABC-1 | 0.675 | 0.613 | 0.688 | 0.628 | 0.881 | 0.48 |  | 0.735 | 0.525 | 0.574 | 0.93 | 1.07 | 1.21 | 1 | 0.965 | 1.17 | 1.15 | 1.12 | 1.18 | 1.05
5 | BEN | 0.641 | 0.614 | 0.662 | 0.566 | 0.659 | 0.928 | 1.15 | 1.1 | 0.975 | 1.09 | 0.702 |  | 0.745 | 0.461 | 0.888 | 0.834 | 1.09 | 1.18 | 0.765 | 0.705
6 | CAL-12T | 0.527 | 0.63 | 0.604 | 0.516 | 0.561 | 0.614 | 0.677 | 0.609 | 0.792 | 0.617 | 1.05 | 1.16 | 1.15 | 0.933 | 0.625 | 0.472 | 0.623 | 0.66 | 0.464 | 1.07
7 | COR-L23 |  |  |  |  |  | 0.308 | 0.283 | 0.245 | 0.322 | 0.285 | 0.935 | 1.05 | 1.1 | 0.92 | 0.645 | 0.607 | 0.768 | 0.59 | 0.629 | 1.02
8 | COR-L 105 |  |  |  |  |  | 0.575 | 0.499 | 0.477 | 0.541 | 0.457 | 1.01 | 0.906 | 1.06 | 0.726 | 0.657 | 0.803 | 0.876 | 0.686 | 0.717 | 0.901
9 | Calu-6 |  |  |  |  |  | 0.422 | 0.471 | 0.43 | 0.479 | 0.407 | 0.814 | 0.822 | 0.931 | 0.862 | 0.781 | 0.808 | 0.886 | 0.843 | 0.73 | 0.825
10 | ChaGo-K-1 | 0.842 | 0.83 | 0.835 | 0.828 | 0.75 | 0.407 | 0.389 | 0.424 | 0.418 | 0.351 | 0.961 | 0.863 | 0.924 | 0.907 | 1.33 | 1.12 | 1.51 | 1.05 | 1.12 | 0.967
11 | EBC-1 |  |  |  |  |  | 0.575 | 0.417 | 0.328 | 0.41 | 0.451 | 0.112 | 0.096 | 0.108 | 0.126 | 0.191 | 0.205 | 0.195 | 0.162 | 0.212 | 0.0908
12 | EKVX | 0.63 | 0.703 |  | 0.764 | 0.524 | 0.617 | 0.72 |  | 0.525 | 0.371 |  | 0.663 | 0.53 | 0.68 |  | 0.789 | 0.79 | 0.825 | 0.922 | 0.458
13 | EMC-BAC-2 | 0.933 | 1.02 | 1.14 | 0.909 | 1.17 | 0.424 |  | 0.384 | 0.366 | 0.326 | 0.873 | 0.955 | 1.02 | 1.02 | 0.655 | 0.648 | 0.845 | 0.705 | 0.82 | 0.956
14 | EPLC-272H | 0.201 | 0.153 | 0.445 |  | 0.215 | 0.79 | 0.673 | 0.551 | 0.687 | 0.619 | 0.63 | 0.64 | 0.669 | 0.645 | 0.881 | 0.81 | 0.803 | 0.842 | 0.871 | 0.875
15 | H3255 | 0.936 | 0.902 | 0.866 | 0.665 | 0.765 | 0.542 | 0.569 | 0.562 | 0.533 | 0.475 | 0.745 | 0.922 | 0.648 | 0.748 |  | 0.767 | 0.711 | 0.722 | 0.815 | 0.934
16 | HARA | 0.306 | 0.466 | 0.317 | 0.356 | 0.273 | 0.936 | 0.701 | 0.524 | 0.445 | 0.839 |  | 0.795 | 0.913 | 0.819 | 0.961 | 0.75 | 1.25 | 1.04 | 1.01 | 0.437
17 | HCC-15 | 1.11 | 1.19 | 1.03 | 1.03 | 1.02 | 0.713 | 0.696 | 0.717 | 0.677 | 0.694 | 0.989 | 0.949 | 1.02 | 0.983 | 0.745 | 0.826 | 0.798 | 1.04 | 0.976 | 1.05
18 | HCC-44 | 0.849 | 0.853 | 0.946 | 0.876 | 0.88 | 0.952 | 0.791 | 0.764 | 0.668 | 0.646 |  |  |  |  | 0.699 | 0.844 | 0.875 | 0.713 | 0.739 | 
